According to patent US8138194B2, “Fused bicyclic pyrimidine compounds as aurora kinase inhibitors” (National Health Research Institutes, priority 2008, dated 2012):
“And” between values parts separate entries of the source, which are not always exact repeats. Equal entries are not always repeated. Where two headings read alike, the source gives them in different places.

What was measured:
[1] = molecular target: T1, GST-tAurora A (123-401aa) fusion protein (Homo sapiens, UniProt O14965); assay: Aurora Kinase A luminescent kinase assay; assay type: biochemical; details: IC50 (concentration of a test compound at which activity of 50% of Aurora A is inhibited)
T1 construct: GST-tAurora A (123-401aa) fusion protein; made in house; host or cells: Sf9 insect cells (baculovirus, pBacPAK8)
T1 sequence (O14965 123-401): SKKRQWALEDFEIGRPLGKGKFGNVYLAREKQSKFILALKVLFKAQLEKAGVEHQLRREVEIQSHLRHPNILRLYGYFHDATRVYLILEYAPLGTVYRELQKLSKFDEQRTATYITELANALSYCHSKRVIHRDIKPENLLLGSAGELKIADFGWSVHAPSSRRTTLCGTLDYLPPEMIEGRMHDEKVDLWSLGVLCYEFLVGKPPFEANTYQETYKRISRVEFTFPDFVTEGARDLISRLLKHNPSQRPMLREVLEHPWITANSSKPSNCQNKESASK
Experimental: The Aurora A catalytic domain with an N-terminal GST tag was constructed in pBacPAK8 plasmid and expressed in sf9 cells. […] To concentrate GST-tAurora A, buffer was replaced with Tris buffer (100 mM Tris (pH 7.5), 300 mM NaCl, 1 mM EDTA, 4 mM DTT) using Amicon ultra-15 (MWCO:30K, Millipore) to 2.4 mg/ml. After the addition of equal volume of glycerol and 0.04% Triton X-100, the proteins were stored aliquoted at −80° C.
Briefly, a test compound, enzyme, substrate-tetra(LRRWSLG), DTT and ATP were dissolved in Aur buffer (50 mM Tris-HCl pH 7.4, 10 mM NaCl, 10 mM MgCl2, and 100 μg/ml BSA) individually before the assay. […] 5 μM ATP (5 μl), 1 mM DTT (5 μl) and 0.1 mM tetra(LRRWSLG) peptide substrate (5 μl) were added into the reactions of test compounds and GST-tAurora A. The reactions were incubated at 37° C. for 90 min. 50 μl of Kinase-Glo Plus Reagent (V3771, Promega) was added into the reactions, followed by the incubation at 25° C. for 20 min.

HCT-116 cells = assay: HCT-116 cell viability MTS assay; assay type: cell-based; details: Homo sapiens
Experimental: HCT-116 cell viability was examined by the MTS assay (Promega, Madison, Wis., USA). 2000 HCT-116 cells in 100 μL McCoy's 5a medium were seeded in each well of a 96-well plate. After 96-h incubation with a test compound, the cells were incubated with 20 μL of a MTS/PMS mixture (MTS/PMS ratio: 20: 1) for 2 h at 37° C. in a humidified incubator with 5% CO2 to allow viable cells to convert the tetrazolium salt (MTS) into formazan. The amount/concentration of formazan, which indicates the number of live cells, was determined by measuring the absorbance at 490 nm using a PerkinElmer Victor2 plate reader (PerkinElmer, Shelton, Cont., USA).

[2] = read-out: IC50 (concentration of a test compound which causes 50% of the cell death), HCT-116, 96-h incubation, MTS

Compound | IC50 [1] | IC50 (HCT-116 cells; [2]) [nM] | IC50 (HCT-116 cells; HCT-116, 96 h, read-out: IC50 (concentration of a test compound which causes 50% of the cell death), HCT-116, 96-h incubation, MTS) [nM]
CN(C)Cc1ccccc1NC(=O)Nc1ccc(CCNc2ncnc3oc(-c4ccccc4)cc23)cc1 [Compound 211] | < 1000 nM and 45 to 400 nM | 100 to 900 | 
CN(C)Cc1ccc(NC(=O)Nc2ccc(CCNc3ncnc4oc(-c5ccccc5)c(-c5ccccc5)c34)cc2)cc1 [Compound 115] | < 1000 nM | 100 to 900 | 
O=C(Nc1ccccc1)Nc1ccc(CCNc2ncnc3oc(-c4ccccc4)c(Br)c23)cc1 [Compound 57] | 45 to 400 nM and < 1000 nM | 100 to 900 | 
CN(C)Cc1ccc(NC(=O)Nc2ccc(CCNc3ncnc4oc(-c5ccccc5)c(Cl)c34)cc2)cc1 [Compound 253] | 45 to 400 nM and < 1000 nM | 100 to 900 | 
O=C(Nc1ccccc1)Nc1ccc(CCNc2ncnc3oc(-c4ccccc4)c(-c4ccccc4)c23)cc1 [Compound 6, 1-(4-(2-(5,6-diphenylfuro[2,3-d]pyrimidin-4-ylamino)ethyl)phenyl)-3-phenylurea] |  | 100 to 900 | 
O=C(Nc1ccccc1)Nc1ccc(CCNc2ncnc3sc4c(c23)CCCCC4)cc1 [Compound 248] | < 1000 nM | 100 to 900 | 
O=C(Nc1ccc(F)cc1)Nc1ccc(CCNc2ncnc3oc(-c4ccccc4)c(-c4ccccc4)c23)cc1 [Compound 61] | 45 to 400 nM and < 1000 nM | 100 to 900 | 
CC(=O)Nc1ccc(-c2c(-c3ccccc3)oc3ncnc(NCCc4ccc(NC(=O)Nc5ccccc5)cc4)c23)cc1 [Compound 58] | < 1000 nM | 100 to 900 | 
O=C(Nc1ccccc1)Nc1ccc(CCNc2ncnc3oc(-c4ccccc4)c(C#CCCO)c23)cc1 [Compound 249] | 45 to 400 nM and < 1000 nM | 100 to 900 | 
O=C(Nc1ccccc1)Nc1ccc(CCNc2ncnc3oc(-c4ccccc4)c(C#CCO)c23)cc1 [Compound 202] | < 1000 nM and 45 to 400 nM | 100 to 900 | 
O=C(Nc1ccccc1)Nc1ccc(CCNc2ncnc3[nH]c(-c4ccccc4)c(-c4ccccc4)c23)cc1 [Compound 172] | 45 to 400 nM and < 1000 nM | 100 to 900 | 
O=C(Nc1ccc(Cl)cc1)Nc1ccc(CCNc2ncnc3oc(-c4ccccc4)c(-c4ccccc4)c23)cc1 [Compound 93] | < 1000 nM | 100 to 900 | 
O=C(Nc1ccccc1)Nc1ncc(CCNc2ncnc3oc(-c4ccccc4)c(-c4ccccc4)c23)s1 [Compound 171] | 45 to 400 nM and < 1000 nM | 100 to 900 | 
O=C(Nc1ccccc1)Nc1ccc(CCNc2ncnc3oc(-c4ccc(OCCCN5CCC[C@H]5CO)cc4)cc23)cc1 [Compound 241] | < 1000 nM and 45 to 400 nM | 100 to 900 | 
O=C(Nc1ccccc1)Nc1ccc(CCNc2ncnc3oc(-c4ccccc4)c(-c4cccc([N+](=O)[O-])c4)c23)cc1 [Compound 219] | < 1000 nM and 45 to 400 nM | 100 to 900 | 
CCCCNC(=O)Nc1ccc(CCNc2ncnc3oc(-c4ccccc4)c(-c4ccccc4)c23)cc1 [Compound 222] | < 1000 nM and 45 to 400 nM | 100 to 900 | 
O=C(Nc1ccccc1)Nc1ccc(CCNc2ncnc3oc(-c4ccccc4)c(-c4ccc(O)cc4)c23)cc1 [Compound 60] | < 1000 nM | 100 to 900 | 
O=C(Nc1ccc(CCNc2ncnc3oc(-c4ccccc4)c(-c4ccccc4)c23)cc1)Nc1cccnc1 [Compound 147] | 45 to 400 nM and < 1000 nM | 100 to 900 | 
Cc1oc2ncnc(NCCc3ccc(NC(=O)Nc4ccccc4)cc3)c2c1C [Compound 220] | < 1000 nM and 45 to 400 nM | 100 to 900 | 
O=C(Nc1ccc(CCNc2ncnc3oc(-c4ccccc4)c(-c4ccccc4)c23)cc1)NC1CCC1 [Compound 214] | 45 to 400 nM and < 1000 nM | 100 to 900 | 
O=C(Nc1ccccc1)Nc1ccc(CCNc2ncnc3oc(-c4ccc(O)cc4)cc23)cc1 [Compound 205] | < 1000 nM and 45 to 400 nM | < 100 | 
CN(C)CCOc1ccc(-c2cc3c(NCCc4ccc(NC(=O)Nc5ccccc5)cc4)ncnc3o2)cc1 [Compound 207] |  |  | 100 to 900
Cc1cc(NC(=O)Nc2ccc(CCNc3ncnc4oc(-c5ccccc5)c(-c5ccccc5)c34)cc2)no1 [Compound 160] | < 1000 nM |  | 
C[Si](C)(C)C#Cc1c(-c2ccccc2)oc2ncnc(NCCc3ccc(NC(=O)Nc4ccccc4)cc3)c12 [Compound 81] | < 1000 nM |  | 
Nc1ccc(CCNc2ncnc3oc(-c4ccccc4)c(-c4ccccc4)c23)cc1 [Compound 3, N-(4-aminophenethyl)-5,6-diphenylfuro[2,3-d]pyrimidin-4-amine] | < 1000 nM |  | 
O=C(Nc1ccc(CCNc2ncnc3oc(-c4ccccc4)c(-c4ccccc4)c23)cc1)Nc1cccc([N+](=O)[O-])c1 [Compound 32] | 45 to 400 nM and < 1000 nM |  | 

Compound | IC50 [1] | IC50 (HCT-116 cells; [2]) [nM] | IC50 (HCT-116 cells; HCT-116, 96 h, read-out: IC50 (concentration of a test compound which causes 50% of the cell death), HCT-116, 96-h incubation, MTS) [nM]
CN(C)CCNC(=O)Nc1ccc(CCNc2ncnc3oc(-c4ccccc4)c(-c4ccccc4)c23)cc1 [Compound 198] | 45 to 400 nM and < 1000 nM |  | 
O=C(NCCN1CCOCC1)Nc1ccc(CCNc2ncnc3oc(-c4ccccc4)c(-c4ccccc4)c23)cc1 [Compound 20] | 45 to 400 nM and < 1000 nM |  | 
S=C(Nc1ccccc1)Nc1ccc(CCNc2ncnc3oc(-c4ccccc4)c(-c4ccccc4)c23)cc1 [Compound 13] | 45 to 400 nM and < 1000 nM |  | 
O=C(Nc1ccc(CCNc2ncnc3oc(-c4ccccc4)c(-c4ccccc4)c23)cc1)Nc1cc(F)cc(F)c1 [Compound 63] | 45 to 400 nM and < 1000 nM |  | 
Cc1cccc(NC(=O)Nc2ccc(CCNc3ncnc4oc(-c5ccccc5)c(-c5ccccc5)c34)cc2)c1 [Compound 28] | 45 to 400 nM and < 1000 nM |  | 
O=C(Nc1ccc(CCNc2ncnc3oc(-c4ccccc4)c(-c4ccccc4)c23)cc1)Nc1ccccc1Br [Compound 197] | < 1000 nM |  | 
O=C(Nc1ccc(CCNc2ncnc3oc(-c4ccccc4)c(-c4ccccc4)c23)cc1)Nc1c(F)cccc1F [Compound 94] | < 1000 nM |  | 
O=C(Nc1ccccc1)Nc1ccc(CCOc2ncnc3oc(-c4ccccc4)c(-c4ccccc4)c23)cc1 [Compound 27] | 45 to 400 nM and < 1000 nM |  | 
O=C(Nc1ccc(CCNc2ncnc3oc(-c4ccccc4)c(-c4ccccc4)c23)cc1)Nc1cnccn1 [Compound 151] | < 1000 nM |  | 
O=C(Nc1ccc(CCNc2ncnc3oc(-c4ccccc4)c(-c4ccccc4)c23)cc1)NC1CCCC1 [Compound 70] | 45 to 400 nM and < 1000 nM |  | 
O=C(Nc1ccccc1)Nc1ccc(CCNc2ncnc3occ(-c4ccccc4)c23)cc1 [Compound 203] | < 1000 nM and 45 to 400 nM |  | 
Cc1cc(NC(=O)Nc2ccc(CCNc3ncnc4oc(-c5ccccc5)c(-c5ccccc5)c34)cc2)on1 [Compound 161] | < 1000 nM and 45 to 400 nM |  | 
CC(C)(C)OC(=O)N1CCN(CCCOc2ccc(-c3cc4c(NCCc5ccc(NC(=O)Nc6ccccc6)cc5)ncnc4o3)cc2)CC1 [Compound 242] | < 1000 nM and 45 to 400 nM |  | 
O=C(Nc1ccc(CCNc2ncnc3oc(-c4ccccc4)c(-c4ccccc4)c23)cc1)Nc1cccc(F)c1F [Compound 91] | 45 to 400 nM and < 1000 nM |  | 
N#Cc1cccc(NC(=O)Nc2ccc(CCNc3ncnc4oc(-c5ccccc5)c(-c5ccccc5)c34)cc2)c1 [Compound 30] | 45 to 400 nM and < 1000 nM |  | 
O=C(Nc1ccccc1)Nc1ccc(CCNc2ncnc3oc(-c4ccccc4)c(-c4ccc([N+](=O)[O-])cc4)c23)cc1 [Compound 77] | 45 to 400 nM and < 1000 nM |  | 
COc1cccc(NC(=O)Nc2ccc(CCNc3ncnc4oc(-c5ccccc5)c(-c5ccccc5)c34)cc2)c1 [Compound 40] | < 1000 nM |  | 
Oc1ccc(CCNc2ncnc3oc(-c4ccccc4)c(-c4ccccc4)c23)cc1 [Compound 4] | < 1000 nM |  | 
CCCNC(=O)Nc1ccc(CCNc2ncnc3oc(-c4ccccc4)c(-c4ccccc4)c23)cc1 [Compound 67] | 45 to 400 nM and < 1000 nM |  | 
COc1ccc(-c2oc3ncnc(NCCc4ccc(NC(=O)Nc5ccccc5)cc4)c3c2-c2ccc(O)cc2)cc1 [Compound 66] | 45 to 400 nM and < 1000 nM |  | 
COc1cccc(-c2c(-c3ccccc3)oc3ncnc(NCCc4ccc(NC(=O)Nc5ccccc5)cc4)c23)c1 [Compound 59] | 45 to 400 nM and < 1000 nM |  | 
O=C(Nc1ccc(CCNc2ncnc3oc(-c4ccccc4)c(-c4ccccc4)c23)cc1)c1ccccc1 [Compound 5] | 45 to 400 nM and < 1000 nM |  | 
Cc1cnc(NC(=O)Nc2ccc(CCNc3ncnc4oc(-c5ccccc5)c(-c5ccccc5)c34)cc2)s1 [Compound 164] | < 1000 nM |  | 
CCOC(=O)N1CCc2c(sc3ncnc(NCCc4ccc(NC(=O)Nc5ccccc5)cc4)c23)C1 [Compound 208] | < 1000 nM and 45 to 400 nM |  | 
O=C(Nc1ccc(CCNc2ncnc3oc(-c4ccccc4)c(-c4ccccc4)c23)cc1)Nc1ccccc1CN1CCCCC1 [Compound 124] | < 1000 nM |  | 
N#C/N=C(\Nc1ccccc1)Nc1ccc(CCNc2ncnc3oc(-c4ccccc4)c(-c4ccccc4)c23)cc1 [Compound 75] | < 1000 nM |  | 
